In PubChem BioAssay AID330 (DTP/NCI, 2004):
Where “and” joins values, the source holds several entries; their conditions need not be identical. Identical values can stand only once. Toxic doses and inconclusive results are not listed.

Tested on: P388 leukemia ip, CD2F1 mice, survival T/C
Assay: NCI In Vivo Anticancer Drug Screen. Data for tumor model P388 Leukemia (intraperitoneal) in CD2F1 (CDF1) mice
Conditions: endpoint: median survival time, higher = longer survival
Outline: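 Mice carrying the transplanted tumor received test compound or vehicle. Survival was recorded in each group, and the value is the treated-group measurement divided by that of the vehicle-treated control group.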

[1] = dose: 50.0 mg/kg/injection, schedule: Q01DX005 (ip), vehicle: saline with Tween-80
[2] = dose: 100.0 mg/kg/injection, schedule: Q01DX005 (ip), vehicle: saline with Tween-80
[3] = dose: 200.0 mg/kg/injection, schedule: Q01DX005 (ip), vehicle: saline with Tween-80
[4] = dose: 50.0 mg/kg/injection, schedule: Q01DX009 (ip), vehicle: Klucel (hydroxypropylcellulose) (HPC)
[5] = dose: 100.0 mg/kg/injection, schedule: Q01DX009 (ip), vehicle: Klucel (hydroxypropylcellulose) (HPC)
[6] = dose: 200.0 mg/kg/injection, schedule: Q01DX009 (ip), vehicle: Klucel (hydroxypropylcellulose) (HPC)
[7] = dose: 50.0 mg/kg/injection, schedule: Q01DX009 (ip), vehicle: saline with Tween-80
[8] = dose: 100.0 mg/kg/injection, schedule: Q01DX009 (ip), vehicle: saline with Tween-80
[9] = dose: 100.0 mg/kg/injection, schedule: Q01DX001 (ip), vehicle: Klucel (hydroxypropylcellulose) (HPC)
[10] = dose: 200.0 mg/kg/injection, schedule: Q01DX001 (ip), vehicle: Klucel (hydroxypropylcellulose) (HPC)
[11] = dose: 60.0 mg/kg/injection, schedule: Q01DX005 (ip), vehicle: saline with Tween-80
[12] = dose: 120.0 mg/kg/injection, schedule: Q01DX005 (ip), vehicle: saline with Tween-80
[13] = dose: 25.0 mg/kg/injection, schedule: Q04DX003 (ip), vehicle: saline with Tween-80
[14] = dose: 50.0 mg/kg/injection, schedule: Q04DX003 (ip), vehicle: saline with Tween-80
[15] = dose: 100.0 mg/kg/injection, schedule: Q04DX002 (ip), vehicle: Klucel (hydroxypropylcellulose) (HPC)
[16] = dose: 200.0 mg/kg/injection, schedule: Q04DX002 (ip), vehicle: Klucel (hydroxypropylcellulose) (HPC)

Structure (SMILES): CNc1ccc(OC)cc1
- T/C (dose: 100.0 mg/kg/injection, schedule: Q04DX003 (ip), vehicle: other): 100 % of control
- T/C (dose: 200.0 mg/kg/injection, schedule: Q04DX003 (ip), vehicle: other): 90 % of control
- T/C (dose: 400.0 mg/kg/injection, schedule: Q04DX003 (ip), vehicle: other): 109 % of control

Structure (SMILES): CCC12C[N+]3([O-])CCc4c([nH]c5ccccc45)C(C(=O)OC)(c4cc5c(cc4OC)N(C)C4C(O)(C(=O)OC)C(OC(C)=O)C6(CC)C=CCN7CCC54C76)CC(C3)C1O2 (stereo not given)
- T/C (dose: 2.0 mg/kg/injection, schedule: Q01DX001 (ip), vehicle: water): 102 % of control
- T/C (dose: 8.0 mg/kg/injection, schedule: Q01DX001 (ip), vehicle: distilled water + Tween-80): 161 % of control
- T/C (dose: 8.0 mg/kg/injection, schedule: Q01DX001 (ip), vehicle: water): 122 % of control
- T/C (dose: 16.0 mg/kg/injection, schedule: Q01DX001 (ip), vehicle: distilled water + Tween-80): 193 % of control
- T/C (dose: 32.0 mg/kg/injection, schedule: Q01DX001 (ip), vehicle: water): 171 % of control
- T/C (dose: 64.0 mg/kg/injection, schedule: Q01DX001 (ip), vehicle: water): 190 % of control

Structure (SMILES): CC(C)(C)N1COC2CCCCC21 (stereo not given)
- T/C (dose: 15.0 mg/kg/injection, schedule: Q01DX005 (ip), vehicle: Klucel (hydroxypropylcellulose) (HPC)): 106 % of control
- T/C (dose: 30.0 mg/kg/injection, schedule: Q01DX005 (ip), vehicle: Klucel (hydroxypropylcellulose) (HPC)): 102 % of control
- T/C (dose: 60.0 mg/kg/injection, schedule: Q01DX005 (ip), vehicle: Klucel (hydroxypropylcellulose) (HPC)): 106 % of control and 117 % of control
- T/C (dose: 240.0 mg/kg/injection, schedule: Q01DX005 (ip), vehicle: Klucel (hydroxypropylcellulose) (HPC)): 106 % of control

Structure (SMILES): COC1=CC(=O)C(C(C)=O)=C(C#N)C1=O
- T/C (dose: 100.0 mg/kg/injection, schedule: Q04DX002 (ip), vehicle: saline with Tween-80): 100 % of control
- T/C (dose: 200.0 mg/kg/injection, schedule: Q04DX002 (ip), vehicle: saline with Tween-80): 100 % of control
- T/C (dose: 400.0 mg/kg/injection, schedule: Q04DX002 (ip), vehicle: saline with Tween-80): 90 % of control

Structure (SMILES): CCOC(=O)CC1=CS/C(=C(/C#N)C(=O)OCC)S1
- T/C [1]: 93 % of control
- T/C [2]: 98 % of control
- T/C [3]: 94 % of control

Structure (SMILES): O=C1CC2(CCCC2)CC(=O)N1c1ccc(O)c(CN2CCCCC2)c1
- T/C [4]: 105 % of control
- T/C [5]: 100 % of control
- T/C [6]: 102 % of control

Structure (SMILES): CC(=O)SCc1nc2ccccc2[nH]1
- T/C (dose: 25.0 mg/kg/injection, schedule: Q01DX009 (ip), vehicle: saline with Tween-80): 107 % of control
- T/C [7]: 105 % of control
- T/C [8]: 108 % of control

Structure (SMILES): Cn1c2ccccc2c2[nH]c3ccccc3c(=O)c21
- T/C (dose: 50.0 mg/kg/injection, schedule: Q01DX005 (ip), vehicle: Klucel (hydroxypropylcellulose) (HPC)): 108 % of control and 97 % of control
- T/C (dose: 100.0 mg/kg/injection, schedule: Q01DX005 (ip), vehicle: Klucel (hydroxypropylcellulose) (HPC)): 95 % of control
- T/C (dose: 200.0 mg/kg/injection, schedule: Q01DX005 (ip), vehicle: Klucel (hydroxypropylcellulose) (HPC)): 90 % of control and 96 % of control

Structure (SMILES): CCn1c(Cl)c(/C=C(/NC(=O)c2ccccc2)C(=O)O)c2ccccc21
- T/C [9]: 100 % of control
- T/C [10]: 94 % of control
- T/C (dose: 400.0 mg/kg/injection, schedule: Q01DX001 (ip), vehicle: Klucel (hydroxypropylcellulose) (HPC)): 94 % of control

Structure (SMILES): COc1ccc2cc1Oc1ccc(cc1)C[C@@H]1c3cc(c(OC)cc3CCN1C)Oc1c(OC)c(OC)cc3c1[C@H](C2)N(C)CC3
- T/C (dose: 25.0 mg/kg/injection, schedule: Q04DX002 (ip), vehicle: suspension in saline): 99 % of control
- T/C (dose: 50.0 mg/kg/injection, schedule: Q04DX002 (ip), vehicle: suspension in saline): 100 % of control
- T/C (dose: 100.0 mg/kg/injection, schedule: Q04DX002 (ip), vehicle: suspension in saline): 100 % of control
- T/C (dose: 200.0 mg/kg/injection, schedule: Q04DX002 (ip), vehicle: suspension in saline): 93 % of control

Structure (SMILES): CNCc1c(C)[nH]c2ccc(N(C)C)cc2c1=O
- T/C [11]: 101 % of control
- T/C [12]: 104 % of control

Structure (SMILES): Cc1nc2ccc3c(ccc4nc(C)c(N=Nc5ccc(C(=N)N)cc5)c(O)c43)c2c(O)c1N=Nc1ccc(C(=N)N)cc1
- T/C [1]: 114 % of control
- T/C [2]: 116 % of control
- T/C [3]: 116 % of control

Structure (SMILES): CC(=O)NCCc1ccc2c(c1)OCO2
- T/C (dose: 25.0 mg/kg/injection, schedule: Q01DX001 (ip), vehicle: saline + alcohol): 105 % of control
- T/C (dose: 50.0 mg/kg/injection, schedule: Q01DX001 (ip), vehicle: saline + alcohol): 99 % of control
- T/C (dose: 100.0 mg/kg/injection, schedule: Q01DX001 (ip), vehicle: saline + alcohol): 98 % of control

Structure (SMILES): CN(/C=C1\CCCCC1=O)c1ccccc1
- T/C [7]: 98 % of control
- T/C [8]: 102 % of control
- T/C (dose: 200.0 mg/kg/injection, schedule: Q01DX009 (ip), vehicle: saline with Tween-80): 113 % of control

Structure (SMILES): NC(=O)C(=O)NNC(=O)CCn1[nH]c(=O)c(Cl)c(Cl)c1=O
- T/C [11]: 100 % of control
- T/C [12]: 103 % of control
- T/C (dose: 240.0 mg/kg/injection, schedule: Q01DX005 (ip), vehicle: saline with Tween-80): 98 % of control

Structure (SMILES): CC1=NN(C(=O)c2ccc(Cl)cc2)C(=O)C1N=Nc1ccc(S(=O)(=O)Nc2ccccn2)cc1 (stereo not given)
- T/C [1]: 102 % of control
- T/C [2]: 94 % of control

Structure (SMILES): COC(=O)Nc1nc2ccc(C(C)(O)c3cccs3)cc2[nH]1 (stereo not given)
- T/C (dose: 25.0 mg/kg/injection, schedule: Q01DX005 (ip), vehicle: saline with Tween-80): 100 % of control
- T/C [1]: 103 % of control
- T/C [2]: 103 % of control
- T/C [3]: 100 % of control

Structure (SMILES): COc1ccc(/C=C/C(C)=O)c(OC)c1
- T/C [9]: 108 % of control
- T/C [10]: 101 % of control

Structure (SMILES): CC(NC1=NCCO1)c1cccc2ccccc12 (stereo not given)
- T/C (dose: 12.5 mg/kg/injection, schedule: Q04DX003 (ip), vehicle: saline with Tween-80): 100 % of control
- T/C [13]: 95 % of control
- T/C [14]: 100 % of control

Structure (SMILES): COc1ccc(NC(=O)c2cc3ccc4c5ccccc5[nH]c4c3cc2O)cc1
- T/C [1]: 90 % of control
- T/C [2]: 88 % of control

Structure (SMILES): CSc1nc2ccc(N3C(=O)C=CC3=O)cc2s1
- T/C (dose: 3.12 mg/kg/injection, schedule: Q01DX009 (ip), vehicle: Klucel (hydroxypropylcellulose) (HPC)): 102 % of control
- T/C (dose: 6.25 mg/kg/injection, schedule: Q01DX009 (ip), vehicle: Klucel (hydroxypropylcellulose) (HPC)): 105 % of control
- T/C (dose: 12.5 mg/kg/injection, schedule: Q01DX009 (ip), vehicle: Klucel (hydroxypropylcellulose) (HPC)): 101 % of control

Structure (SMILES): O=C(Nc1ccc(C(=O)O)cc1)Nc1ccc(C(=O)O)cc1
- T/C [15]: 99 % of control
- T/C [16]: 109 % of control

Structure (SMILES): C/C(N)=N/OC(c1ccccc1)(c1ccccc1)c1ccccc1
- T/C (dose: 50.0 mg/kg/injection, schedule: Q01DX005 (ip), vehicle: Klucel + Tween-80): 94 % of control
- T/C (dose: 100.0 mg/kg/injection, schedule: Q01DX005 (ip), vehicle: Klucel + Tween-80): 90 % of control
- T/C (dose: 200.0 mg/kg/injection, schedule: Q01DX005 (ip), vehicle: Klucel + Tween-80): 93 % of control

Structure (SMILES): c1cc2nncn2cn1
- T/C [4]: 93 % of control
- T/C [5]: 104 % of control
- T/C [6]: 99 % of control

Structure (SMILES): COc1cc2c(/C=N/NC(N)=S)c(Cl)[nH]c2cc1C
- T/C [13]: 105 % of control
- T/C [14]: 107 % of control
- T/C (dose: 100.0 mg/kg/injection, schedule: Q01DX001 (ip), vehicle: saline with Tween-80): 102 % of control
- T/C (dose: 100.0 mg/kg/injection, schedule: Q04DX003 (ip), vehicle: saline with Tween-80): 90 % of control
- T/C (dose: 200.0 mg/kg/injection, schedule: Q01DX001 (ip), vehicle: saline with Tween-80): 100 % of control
- T/C (dose: 200.0 mg/kg/injection, schedule: Q04DX003 (ip), vehicle: saline with Tween-80): 98 % of control
- T/C (dose: 400.0 mg/kg/injection, schedule: Q01DX001 (ip), vehicle: saline with Tween-80): 90 % of control

Structure (SMILES): Cc1nn(-c2ccccc2)c([O-])c1[N+]#N
- T/C [15]: 102 % of control
- T/C [16]: 102 % of control
- T/C (dose: 400.0 mg/kg/injection, schedule: Q04DX002 (ip), vehicle: Klucel (hydroxypropylcellulose) (HPC)): 100 % of control

Structure (SMILES): O=C(O)C1CSC(c2cccnc2)N1 (stereo not given)
- T/C (dose: 50.0 mg/kg/injection, schedule: Q01DX009 (ip), vehicle: saline): 89 % of control
- T/C (dose: 100.0 mg/kg/injection, schedule: Q01DX009 (ip), vehicle: saline): 90 % of control
